{"source": "patent US10745429B2", "about": "“Phospholidines that are Bcl family antagonists for use in clinical management of conditions caused or mediated by senescent cells and for treating cancer” (Unity Biotechnology, Inc., priority 2018, dated 2020)", "key": {"[1]": {"system": "3MR and INK-ATTAC mice exposed to cigarette smoke", "test": "Cigarette smoke induced COPD model, pulse oximetry", "assay_type": "in vivo, mouse", "conditions": "after two months of cigarette smoke exposure, compared with untreated controls; FIG. 8", "experimental": "As a model for chronic obstructive pulmonary disease (COPD), mice were exposed to cigarette smoke.\nThe effect of a senolytic agent on the mice exposed to smoke is assessed by senescent cell clearance, lung function, and histopathology.\nThe mice used in this study include the 3MR strain, described in US 2017/0027139 A1 and in Demaria et al., Dev Cell. 2014 Dec. 22; 31(6): 722-733. The 3MR mouse has a transgene encoding thymidine kinase that converts the prodrug ganciclovir (GCV) to a compound that is lethal to cells. The enzyme in the transgene is placed under control of the p16 promoter, which causes it to be specifically expressed in senescent cells. Treatment of the mice with GCV eliminates senescent cells.\nOther mice used in this study include the INK-ATTAC strain, described in US 2015/0296755 A1 and in Baker et al., Nature 2011 Nov. 2; 479(7372):232-236. The INK-ATTAC mouse has a transgene encoding switchable caspase 8 under control of the p16 promoter. The caspase 8 can be activated by treating the mice with the switch compound AP20187, whereupon the caspase 8 directly induces apoptosis in senescent cells, eliminating them from the mouse.\nTo conduct the experiment, six-week-old 3MR (n=35) or INK-ATTAC (n=35) mice were chronically exposed to cigarette smoke generated from a Teague TE-10 system, an automatically-controlled cigarette smoking machine that produces a combination of side-stream and mainstream cigarette smoke in a chamber, which is transported to a collecting and mixing chamber where varying amounts of air is mixed with the smoke mixture. The COPD protocol was adapted from the COPD core facility at Johns Hopkins University (Rangasamy et al., 2004, J. Clin. Invest. 114:1248-1259; Yao et al., 2012, J. Clin. Invest. 122:2032-2045).\nMice received a total of 6 hours of cigarette smoke exposure per day, 5 days a week for 6 months. Each lighted cigarette (3R4F research cigarettes containing 10.9 mg of total particulate matter (TPM), 9.4 mg of tar, and 0.726 mg of nicotine, and 11.9 mg carbon monoxide per cigarette [University of Kentucky, Lexington, Ky.]) was puffed for 2 seconds and once every minute for a total of 8 puffs, with the flow rate of 1.05 L/min, to provide a standard puff of 35 cm3. […] The smoke chamber atmosphere was monitored for total suspended particulates (80-120 mg/m3) and carbon monoxide (350 ppm). […]\nAfter two months of cigarette smoke (CS) exposure, lung function was assessed by monitoring oxygen saturation using the MouseSTAT PhysioSuite™ pulse oximeter (Kent Scientific). […] Mice were monitored for 30 seconds and the average peripheral capillary oxygen saturation (SpO2) measurement over this duration was calculated."}, "[2]": {"system": "C57BL/6J mice with osteoarthritis induced by ACL surgery", "test": "Osteoarthritis model: anterior cruciate ligament surgery, intra-articular treatment", "assay_type": "in vivo, mouse", "experimental": "The model was implemented as follows. C57BL/6J mice underwent surgery to cut the anterior cruciate ligament of one rear limb to induce osteoarthritis in the joint of that limb. During week 3 and week 4 post-surgery, the mice were treated with 5.8 μg of Nutlin-3A (n=7) per operated knee by intra-articular injection, q.o.d. for 2 weeks. At the end of 4 weeks post-surgery, joints of the mice were monitored for presence of senescent cells, assessed for function, monitored for markers of inflammation, and underwent histological assessment.\nTwo control groups of mice were included in the studies performed: one group comprising C57BL/6J or 3MR mice that had undergone a sham surgery (n=3) (i.e., surgical procedures followed except for cutting the ACL) and intra-articular injections of vehicle parallel to the GCV (ganciclovir) treated group; and one group comprising C57BL/6J or 3MR mice that had undergone an ACL surgery and received intra-articular injections of vehicle (n=5) parallel to the GCV-treated group. RNA from the operated joints of mice from the Nutlin-3A treated mice was analyzed for expression of SASP factors (mmp3, IL-6) and senescence markers (p16). qRT-PCR was performed to detect mRNA levels.\nFunction of the limbs was assessed 4 weeks post-surgery by a weight bearing test to determine which leg the mice favored. The mice were allowed to acclimate to the chamber on at least three occasions prior to taking measurements. Mice were maneuvered inside the chamber to stand with one hind paw on each scale. The weight that was placed on each hind limb was measured over a three second period. At least three separate measurements were made for each animal at each time point. The results were expressed as the percentage of the weight placed on the operated limb versus the contralateral unoperated limb."}, "[3]": {"system": "LDLR-/- mice fed a high fat diet", "test": "Atherosclerosis model, LDLR-/- mice on a high fat diet, systemic treatment", "assay_type": "in vivo, mouse", "experimental": "This example illustrates the testing of an MDM2 inhibitor in a mouse model for treatment of atherosclerosis. The test compounds are administered systemically rather than locally. The model is done in an LDLR−/− strain of mice, which are deficient in the receptor for low-density lipoprotein. The experiments described here can be adapted mutatis mutandis to test and develop other types of inhibitors for use in clinical therapy.\nTwo groups of LDLR−/− mice (10 weeks) are fed a high fat diet (HFD) (Harlan Teklad TD.88137) having 42% calories from fat, beginning at Week 0 and throughout the study. Two groups of LDLR−/− mice (10 weeks) are fed normal chow (−HFD). From weeks 0-2, one group of HFD mice and −HFD mice are treated with Nutlin-3A (25 mg/kg, intraperitoneally). One treatment cycle is 14 days treatment, 14 days off. Vehicle is administered to one group of HFD mice and one group of −HFD mice. At week 4 (timepoint 1), one group of mice are sacrificed and to assess presence of senescent cells in the plaques. For the some of the remaining mice, Nutlin-3A and vehicle administration is repeated from weeks 4-6. At week 8 (timepoint 2), the mice are sacrificed and to assess presence of senescent cells in the plaques. The remaining mice are treated with Nutlin-3A or vehicle from weeks 8-10. At week 12 (timepoint 3), the mice are sacrificed and to assess the level of plaque and the number of senescent cells in the plaques.\nPlasma lipid levels were measured in LDLR−/− mice fed a HFD and treated with Nutlin-3A or vehicle at timepoint 1 as compared with mice fed a −HFD (n=3 per group). Plasma was collected mid-afternoon and analyzed for circulating lipids and lipoproteins.\nAt the end of timepoint 1, LDLR−/− mice fed a HFD and treated with Nutlin-3A or vehicle were sacrificed (n=3, all groups), and the aortic arches were dissected for RT-PCR analysis of SASP factors and senescent cell markers. Values were normalized to GAPDH and expressed as fold-change versus age-matched, vehicle-treated LDLR−/− mice on a normal diet.\nAt the end of timepoint 2, LDLR−/− mice fed a HFD and treated with Nutlin-3A or vehicle (n=3 for all groups) were sacrificed, and aortic arches were dissected for RT-PCR analysis of SASP factors and senescent cell markers. Values were normalized to GAPDH and expressed as fold-change versus age-matched, vehicle-treated LDLR−/− mice on a normal diet.\nAt the end of timepoint 3, LDLR−/− mice fed a HFD and treated with Nutlin-3A or vehicle (n=3 for all groups) were sacrificed, and aortas were dissected and stained with Sudan IV to detect the presence of lipid. Body composition of the mice was analyzed by MRI, and circulating blood cells were counted by Hemavet™."}, "[4]": {"system": "primary cells from patients with B-cell malignancies", "conditions": "in vitro studies; cited from earlier work"}, "[5]": {"system": "cancer cells in human patients", "conditions": "cited from earlier work"}}, "data": [{"smiles": "CC[C@H](C(=O)N1CCCC[C@H]1C(=O)O[C@H](CCc1ccc(OC)c(OC)c1)c1cccc(OCC(=O)NCC(CNC(=O)COc2cccc([C@@H](CCc3ccc(OC)c(OC)c3)OC(=O)[C@@H]3CCCCN3C(=O)[C@@H](CC)c3cc(OC)c(OC)c(OC)c3)c2)CN(C)C)c1)c1cc(OC)c(OC)c(OC)c1", "note": "[AP2018]", "values": [{"measurement": "peripheral capillary oxygen saturation (SpO2) levels", "setting": "[1]", "value": "statistically significant increases"}]}, {"smiles": "CC1(C)CCC(c2ccc(Cl)cc2)=C(CN2CCN(c3ccc(C(=O)NS(=O)(=O)c4ccc(N[C@H](CCN5CCOCC5)CSc5ccccc5)c(S(=O)(=O)C(F)(F)F)c4)cc3)CC2)C1", "note": "[ABT-263]", "values": [{"measurement": "peripheral capillary oxygen saturation (SpO2) levels", "setting": "[1]", "value": "statistically significant increases"}]}, {"smiles": "COc1ccc(C2=N[C@@H](c3ccc(Cl)cc3)[C@@H](c3ccc(Cl)cc3)N2C(=O)N2CCNC(=O)C2)c(OC(C)C)c1", "note": "[Nutlin-3A]", "values": [{"measurement": "presence of senescent cells in the joint", "setting": "[2]; 5.8 μg per operated knee intra-articular, 4 weeks post-surgery", "value": "cleared senescent cells from the joint"}, {"measurement": "weight bearing test: weight placed on the operated limb versus the contralateral unoperated limb", "setting": "[2]; 4 weeks post-surgery, effect = favoring the unoperated hind limb, FIG. 6A", "value": "abrogated this effect"}, {"measurement": "histopathology of joint tissue: destruction of the proteoglycan layer", "setting": "[2]; effect = proteoglycan layer destroyed by ACL surgery, FIGS. 6B-6D", "value": "completely abrogated this effect"}, {"measurement": "expression of p16 in the tissue (mRNA, qRT-PCR)", "setting": "[2]; operated joints, 5.8 μg per operated knee intra-articular q.o.d. for 2 weeks, 4 weeks post-surgery, FIG. 5A", "value": "reduced the expression back to below the level of the controls"}, {"measurement": "expression of IL-6 in the tissue (mRNA, qRT-PCR)", "setting": "[2]; operated joints, 5.8 μg per operated knee intra-articular q.o.d. for 2 weeks, 4 weeks post-surgery, FIG. 5B", "value": "reduced the expression back to below the level of the controls"}, {"measurement": "expression of MMP13 in the tissue (mRNA, qRT-PCR)", "setting": "[2]; operated joints, 5.8 μg per operated knee intra-articular q.o.d. for 2 weeks, 4 weeks post-surgery, FIG. 5C", "value": "reduced the expression back to below the level of the controls"}, {"measurement": "peripheral capillary oxygen saturation (SpO2) levels", "setting": "[1]", "value": "statistically significant increases"}, {"measurement": "expression of SASP factors and senescent cell markers MMP3, MMP13, PAI1, p21, IGFBP2, IL-1A, IL-1B in the aortic arch (RT-PCR)", "setting": "[3]; 25 mg/kg intraperitoneally, timepoint 1 (week 4), after one treatment cycle", "value": "reduced expression of several SASP factors and senescent cell markers"}, {"measurement": "expression of SASP factors and senescent cell markers in the aortic arch (RT-PCR)", "setting": "[3]; 25 mg/kg intraperitoneally, timepoint 2 (week 8), multiple treatment cycles", "value": "reduced expression of most markers"}, {"measurement": "reduction of the surface area covered by plaques in the descending aorta (Sudan IV)", "setting": "[3]; 25 mg/kg intraperitoneally, timepoint 3 (week 12), FIG. 9", "value": "about 45%"}, {"measurement": "body fat composition of mice fed the high fat diet (MRI)", "setting": "[3]; timepoint 3 (week 12)", "value": "decreased"}, {"measurement": "mass of mice fed the high fat diet", "setting": "[3]; timepoint 3 (week 12)", "value": "decreased"}, {"measurement": "lymphocyte counts versus vehicle treated mice", "setting": "[3]; timepoint 3 (week 12), Hemavet", "value": "equivalent"}, {"measurement": "platelet counts versus vehicle treated mice", "setting": "[3]; timepoint 3 (week 12), Hemavet", "value": "equivalent"}]}, {"smiles": "Nc1nc(O)c2ncn(COC(CO)CO)c2n1", "note": "[ganciclovir]", "values": [{"measurement": "peripheral capillary oxygen saturation (SpO2) levels", "setting": "[1]", "value": "statistically significant increases"}]}, {"smiles": "CN(C)CC[C@H](CSc1ccccc1)Nc1ccc(S(=O)(=O)NC(=O)c2ccc(N3CCN(Cc4ccccc4-c4ccc(Cl)cc4)CC3)cc2)cc1[N+](=O)[O-]", "note": "[ABT-737]", "values": [{"measurement": "sensitivity of primary cells from patients with B-cell malignancies", "setting": "[4]", "value": "sensitive"}, {"measurement": "efficacy against cancer cells in human patients", "setting": "[5]", "value": "effective against some types of cancer cells"}]}]}
